Among the data in patent publication US10005771B2, “Bicyclic derivatives having β2 adrenergic agonist and M3 muscarinic antagonist activities” (Almirall, S.A., priority 2014, dated 2018) are IC50 values, retold here.

In experiment [1] the target is T1, human muscarinic M3 receptors (Homo sapiens, UniProt P20309).
T1 construct: purchased Perkin Elmer; host or cells: CHO-K1 cells
The experiment in a line: Human muscarinic M3 receptors binding assay ([3H]-NMS, CHO-K1 membranes). Conditions: membranes from CHO-K1 cells, [3H]-NMS radioligand, two hours incubation. Here is the method: Test 2: Human Muscarinic M3 Receptors Binding Assays
The study of binding to human muscarinic M3 receptors was performed using commercial membranes (Perkin Elmer) prepared from CHO-K1 cells.
Radioligand binding experiments were conducted in 96 polypropylene well plates in a total volume of 200 μl. All reagents were dissolved in assay binding buffer (PBS with calcium and magnesium, SIGMA), except compounds that were dissolved in DMSO 100%. Non-specific binding (NSB) was measured in the presence of 1 μM atropine. [3H]-NM, used as the radioligand was incubated with membranes that express human muscarinic M3 at concentration of 4.9 μg/well.
After an incubation period of two hours with gentle shaking, 150 μl of the reaction mix were transferred to 96 GF/C filter plates (Millipore), previously treated with wash buffer (Tris 50 mM; NaCl 100 mM; pH: 7.4), containing 0.05% PEI (Sigma) during one hour. Bound and free [3H]-NMS were separated by rapid vacuum filtration in a manifold from Millipore and washed four times with ice cold wash buffer. After drying 30 min, 30 μl of OPTIPHASE Supermix were added to each well and radioactivity quantified using a Microbeta microplate scintillation counter.
The affinity of each test compound to the receptor was determined by using ten different concentrations ran in duplicate. IC50s were calculated using Activity Base software from IDBS and the four parameters-log equation.

Experiment [2] addresses T2, human adrenergic β2 receptor (Homo sapiens, UniProt P07550).
T2 construct: purchased Perkin Elmer; host or cells: Sf9 cells
Put plainly: Human adrenergic β2 receptor binding assay (3H-CGP12177, Sf9 membranes). Conditions: membranes from Sf9 cells, 0.6 nM 3H-CGP12177, 60 minutes at room temperature. Here is the method:
Test 1: Human Adrenergic β1 and β2 Receptor Binding Assays
The study of binding to human adrenergic beta1 and beta2 receptors was performed using commercial membranes prepared from Sf9 cells where they are overexpressed (Perkin Elmer). The membrane suspensions (16 μg/well for beta1 and 5 μg/well for beta2) in assay buffer (75 mM Tris/HCl with 12.5 mM MgCl2 and 2 mM EDTA pH=7.4) were incubated with 0.14 or 0.6 nM of 3H-CGP12177 (Amersham) for beta 1 and beta 2 receptors respectively in a final volume of 250 μl, in GFC Multiscreen 96 well plates (Millipore) previously treated with assay buffer containing 0.3% PEI (Sigma). Non specific binding was measured in the presence of 1 μM propanolol. Incubation was maintained for 60 minutes at room temperature and with gentle shaking. The binding reactions were terminated by filtration and washing with 2.5 volumes of Tris/HCl 50 mM pH=7.4. The affinity of each test compound to the receptor was determined by using ten different concentrations ran in duplicate. IC50s were calculated using Activity Base software from IDBS and the four parameters-log equation.

T1 sequence (P20309 whole entry): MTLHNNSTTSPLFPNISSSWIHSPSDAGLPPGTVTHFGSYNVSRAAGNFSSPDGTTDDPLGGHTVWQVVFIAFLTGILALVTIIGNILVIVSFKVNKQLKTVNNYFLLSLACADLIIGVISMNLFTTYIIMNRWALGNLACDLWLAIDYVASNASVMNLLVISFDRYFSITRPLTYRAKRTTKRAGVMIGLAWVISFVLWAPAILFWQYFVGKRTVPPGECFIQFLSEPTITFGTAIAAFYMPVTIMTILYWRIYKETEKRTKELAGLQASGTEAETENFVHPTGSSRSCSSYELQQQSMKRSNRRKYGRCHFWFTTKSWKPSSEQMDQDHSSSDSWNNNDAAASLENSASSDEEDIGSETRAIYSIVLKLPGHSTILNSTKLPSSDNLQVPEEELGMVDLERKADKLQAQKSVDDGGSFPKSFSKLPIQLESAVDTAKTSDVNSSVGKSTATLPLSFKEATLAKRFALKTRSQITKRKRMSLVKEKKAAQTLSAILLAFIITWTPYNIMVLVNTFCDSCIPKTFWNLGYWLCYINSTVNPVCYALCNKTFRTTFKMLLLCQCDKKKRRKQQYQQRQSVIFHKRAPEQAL

As usually defined, the IC50 is the concentration at which inhibition is half-maximal. In the case of `O=C(CCCc1cccc(C2(C(=O)O[C@H]3CN4CCC3CC4)CCCCC2)c1)N[C@H]1CC[C@H](CNC[C@H](O)c2ccc(O)c3[nH]c(=O)ccc23)CC1` [Example 3, (3R)-1-azabicyclo[2.2.2]oct-3-yl 1-[3-(4-{[trans-4-({[(2R)-2-hydroxy-2-(8-hydroxy-2-oxo-1,2-dihydroquinolin-5-yl)ethyl]amino}methyl)cyclohexyl]amino}-4-oxobutyl)phenyl]cyclohexanecarboxylate], the results for the IC50 in experiment [1] and in experiment [2] were 1.7 nM and 4.2 nM, respectively.

With `COc1cc(OCC(=O)OC2CCC(Cc3cccc(C4(C(=O)O[C@H]5CN6CCC5CC6)CCCCC4)c3)CC2)c(Cl)cc1CNC[C@H](O)c1ccc(O)c2[nH]c(=O)ccc12` (stereo partly drawn) [Example 14, (3R)-1-azabicyclo[2.2.2]oct-3-yl 1-(3-{[4-({[2-chloro-4-({[(2R)-2-hydroxy-2-(8-hydroxy-2-oxo-1,2-dihydroquinolin-5-yl)ethyl]amino}methyl)-5-methoxyphenoxy]acetyl}oxy)cyclohexyl]methyl}phenyl)cyclohexanecarboxylate], the IC50 in experiment [1] was found to be 7.1 nM; in experiment [2] it was 9 nM.

Turning to `COc1cc(C(=O)OCCCCc2cccc(C3(C(=O)O[C@H]4CN5CCC4CC5)CCCCC3)c2)c(Cl)cc1CNC[C@H](O)c1ccc(O)c2[nH]c(=O)ccc12` [Example 22, 4-[3-(1-{[(3R)-1-azabicyclo[2.2.2]oct-3-yloxy]carbonyl}cyclohexyl)phenyl]butyl 2-chloro-4-({[(2R)-2-hydroxy-2-(8-hydroxy-2-oxo-1,2-dihydroquinolin-5-yl)ethyl]amino}methyl)-5-methoxybenzoate], the IC50 in experiment [1] was found to be 0.29 nM; in experiment [2], 7.8 nM.

For “(3R)-1-azabicyclo[2.2.2]oct-3-yl 1-(3-{4-[{[2-chloro-4-({[2-hydroxy-2-(8-hydroxy-2-oxo-1,2-dihydroquinolin-5-yl)ethyl]amino}methyl)-5-methoxyphenoxy]acetyl}(methyl)amino]butyl}phenyl)cyclohexanecarboxylate [Example 26]”, the IC50 in experiment [1] amounted to 0.53 nM; in experiment [2] it was 3 nM.

`COc1cc(NC(=O)CCCc2cccc(C3(C(=O)OCC4CCN(C)CC4)CCCCC3)c2)c(Cl)cc1CNC[C@H](O)c1ccc(O)c2[nH]c(=O)ccc12` [Example 29, (1-methylpiperidin-4-yl)methyl 1-[3-(4-{[2-chloro-4-({[(2R)-2-hydroxy-2-(8-hydroxy-2-oxo-1,2-dihydroquinolin-5-yl)ethyl]amino}methyl)-5-methoxyphenyl]amino}-4-oxobutyl)phenyl]cyclohexanecarboxylate]: the IC50 in experiment [1] is 0.57 nM; in experiment [2], 2.2 nM.

Consider `COc1cc(OCC(=O)NCCCCc2cccc(C3(C(=O)O[C@H]4CN5CCC4CC5)CCCCC3)c2)c(Cl)cc1CNCC(O)c1ccc(O)c2[nH]c(=O)ccc12` (stereo partly drawn) [Example 24, (3R)-1-azabicyclo[2.2.2]oct-3-yl 1-{3-[4-({[2-chloro-4-({[2-hydroxy-2-(8-hydroxy-2-oxo-1,2-dihydroquinolin-5-yl)ethyl]amino}methyl)-5-methoxyphenoxy]acetyl}amino)butyl]phenyl}cyclohexanecarboxylate], for which the figures for the IC50 in experiment [1] and in experiment [2] were 0.33 nM and 1.9 nM, respectively.

Turning to `COc1cc(NC(=O)CCCc2ccc(C3(C(=O)O[C@H]4CN5CCC4CC5)CCCCC3)cc2)c(Cl)cc1CNC[C@H](O)c1ccc(O)c2[nH]c(=O)ccc12` [Example 31, (3R)-1-azabicyclo[2.2.2]oct-3-yl 1-[4-(4-{[2-chloro-4-({[(2R)-2-hydroxy-2-(8-hydroxy-2-oxo-1,2-dihydroquinolin-5-yl)ethyl]amino}methyl)-5-methoxyphenyl]amino}-4-oxobutyl)phenyl]cyclohexanecarboxylate], the 50% inhibitory concentration (IC50) was determined as 0.41 nM in experiment [1] and 4 nM in experiment [2].
